Here are results for 6 molecules from US10986838B2, “Herbicides” (SYNGENTA PARTICIPATIONS AG, priority 2016, dated 2021).

The subject of one assay is Zea Mays (ZEAMX). Nature of the assay: Pre-emergence herbicidal activity (B1). The format is in vivo. The following applies: Test 1b, 1000 g/ha, evaluated after 13 days, 5=total damage to plant, 0=no damage to plant. The procedure:
(§1) B1 Pre-Emergence Herbicidal Activity Seeds of a variety of test species were sown in standard soil in pots: Triticum aestivium (TRZAW), Avena fatua (AVEFA), Alopecurus myosuroides (ALOMY), Echinochloa crus-galli (ECHCG), Lolium perenne (LOLPE), Zea Mays (ZEAMX), Abutilon theophrasti (ABUTH), Amaranthus retroflexus (AMARE) and Setaria faberi (SETFA). After cultivation for one day (pre-emergence) under controlled conditions in a glasshouse (at 24/16° C., day/night; 14 hours light; 65% humidity), the plants were sprayed with an aqueous spray solution derived from the formulation of the technical active ingredient in acetone/water (50:50) solution containing 0.5% Tween 20 (polyoxyethelyene sorbitan monolaurate, CAS RN 9005-64-5). The test plants were then grown in a glasshouse under controlled conditions (at 24/16° C., day/night; 14 hours light; 65% humidity) and watered twice daily. After 13 days, the test was evaluated (5=total damage to plant; 0=no damage to plant). Tables B1a and B1b Control of Weed Species by Compound of Formula (I) after Pre-Emergence Application
The molecule `CNc1ccc(-c2cncc(F)c2)nc1C(F)(F)F` [Compound A5] showed a ZEAMX damage score of 4.
Regarding `CC(Nc1ccc(-c2cncc(F)c2)nc1C(F)(F)F)c1ccccc1` (stereo not drawn) [Compound A17], the ZEAMX damage score is on record as 0.
The same measure, in the same setting: the value for `CNc1ccc(-c2cncc(OC)c2)nc1C(F)(F)F` [Compound A10] was 1.
Same read-out and setting: the value for `CNc1ccc(-c2cncnc2)nc1C` [Compound A15] was 1.
Still for that read-out and setting: the value for `CNc1ccc(-c2cccnc2)nc1C(F)(F)F` [Compound A11] was 1; that for `Fc1cncc(-c2ccc(NCc3ccccc3)c(C(F)(F)F)n2)c1` [Compound A21] was 3.

A further assay has as its system Abutilon theophrasti (ABUTH). Nature of the assay: Pre-emergence herbicidal activity (B1). The format is in vivo. Conditions: Test 1b, 1000 g/ha, evaluated after 13 days, 5=total damage to plant, 0=no damage to plant. The procedure: as §1
In turn, `CNc1ccc(-c2cncc(F)c2)nc1C(F)(F)F` [Compound A5] registered an ABUTH damage score of 1.
The molecule `CC(Nc1ccc(-c2cncc(F)c2)nc1C(F)(F)F)c1ccccc1` (stereo not drawn) [Compound A17] yielded an ABUTH damage score of 0.
On the same count and under the same terms, the same measure for `CNc1ccc(-c2cncc(OC)c2)nc1C(F)(F)F` [Compound A10]: 1; for `CNc1ccc(-c2cncnc2)nc1C` [Compound A15]: 0; for `CNc1ccc(-c2cccnc2)nc1C(F)(F)F` [Compound A11]: 1.
On the same count and under the same terms, the value for `Fc1cncc(-c2ccc(NCc3ccccc3)c(C(F)(F)F)n2)c1` [Compound A21] was 0.

A further assay concerns Lolium perenne (LOLPE). Nature of the assay: Pre-emergence herbicidal activity (B1). It counts as in vivo. The following applies: Test 1b, 1000 g/ha, evaluated after 13 days, 5=total damage to plant, 0=no damage to plant. The procedure: as §1
For `CNc1ccc(-c2cncc(F)c2)nc1C(F)(F)F` [Compound A5], the LOLPE damage score is 1.
Molecule `CC(Nc1ccc(-c2cncc(F)c2)nc1C(F)(F)F)c1ccccc1` (stereo not drawn) [Compound A17] gave an LOLPE damage score of 0.
In the case of `CNc1ccc(-c2cncc(OC)c2)nc1C(F)(F)F` [Compound A10], the LOLPE damage score amounted to 0.
The same measure, in the same setting: the same measure for `CNc1ccc(-c2cncnc2)nc1C` [Compound A15]: 0.
`CNc1ccc(-c2cccnc2)nc1C(F)(F)F` [Compound A11] displayed an LOLPE damage score of 1.
The same measure, in the same setting: the same measure for `Fc1cncc(-c2ccc(NCc3ccccc3)c(C(F)(F)F)n2)c1` [Compound A21]: 2.

The test system of another assay is Setaria faberi (SETFA). Nature of the assay: Pre-emergence herbicidal activity (B1). The format is in vivo. The following applies: Test 1b, 1000 g/ha, evaluated after 13 days, 5=total damage to plant, 0=no damage to plant. The procedure: as §1
For the molecule `CNc1ccc(-c2cncc(F)c2)nc1C(F)(F)F` [Compound A5], the SETFA damage score came to 5.
Still for that read-out and setting: the same measure for `CC(Nc1ccc(-c2cncc(F)c2)nc1C(F)(F)F)c1ccccc1` (stereo not drawn) [Compound A17]: 2; for `CNc1ccc(-c2cncc(OC)c2)nc1C(F)(F)F` [Compound A10]: 2; for `CNc1ccc(-c2cncnc2)nc1C` [Compound A15]: 1.
Still for that read-out and setting: the same measure for `CNc1ccc(-c2cccnc2)nc1C(F)(F)F` [Compound A11]: 5.
In turn, `Fc1cncc(-c2ccc(NCc3ccccc3)c(C(F)(F)F)n2)c1` [Compound A21] had an SETFA damage score of 5.

In the next assay the test system is Amaranthus retroflexus (AMARE). Nature of the assay: Pre-emergence herbicidal activity (B1). The format is in vivo. Conditions: Test 1b, 1000 g/ha, evaluated after 13 days, 5=total damage to plant, 0=no damage to plant. The procedure:
as §1
On to `CNc1ccc(-c2cncc(F)c2)nc1C(F)(F)F` [Compound A5], for which the AMARE damage score worked out at 2.
Consider `CC(Nc1ccc(-c2cncc(F)c2)nc1C(F)(F)F)c1ccccc1` (stereo not drawn) [Compound A17], for which the AMARE damage score came out at 0.
Same read-out and setting: the value for `CNc1ccc(-c2cncc(OC)c2)nc1C(F)(F)F` [Compound A10] was 1; that for `CNc1ccc(-c2cncnc2)nc1C` [Compound A15] was 0.
The same measure, in the same setting: the same measure for `CNc1ccc(-c2cccnc2)nc1C(F)(F)F` [Compound A11]: 1.
`Fc1cncc(-c2ccc(NCc3ccccc3)c(C(F)(F)F)n2)c1` [Compound A21] yielded an AMARE damage score of 1.

The next assay has as its system Echinochloa crus-galli (ECHCG). Description: Pre-emergence herbicidal activity (B1). It counts as in vivo. The following applies: Test 1b, 1000 g/ha, evaluated after 13 days, 5=total damage to plant, 0=no damage to plant. The procedure:
as §1
In turn, `CNc1ccc(-c2cncc(F)c2)nc1C(F)(F)F` [Compound A5] gave an ECHCG damage score of 2.
`CC(Nc1ccc(-c2cncc(F)c2)nc1C(F)(F)F)c1ccccc1` (stereo not drawn) [Compound A17] yielded an ECHCG damage score of 0.
On the same count and under the same terms, the same measure for `CNc1ccc(-c2cncc(OC)c2)nc1C(F)(F)F` [Compound A10]: 0.
On the same count and under the same terms, the same measure for `CNc1ccc(-c2cncnc2)nc1C` [Compound A15]: 1; for `CNc1ccc(-c2cccnc2)nc1C(F)(F)F` [Compound A11]: 2; for `Fc1cncc(-c2ccc(NCc3ccccc3)c(C(F)(F)F)n2)c1` [Compound A21]: 3.

For a further assay, the system named is Zea Mays (ZEAMX). Description: Post-emergence herbicidal activity (B2). The format is in vivo. The following applies: Test B2b, 1000 g/ha, evaluated after 13 days, 5=total damage to plant, 0=no damage to plant. The procedure:
(§2) B2 Post-Emergence Herbicidal Activity Seeds of a variety of test species were sown in standard soil in pots: Triticum aestivium (TRZAW), Avena fatua (AVEFA), Alopecurus myosuroides (ALOMY), Echinochloa crus-galli (ECHCG), Lolium perenne (LOLPE), Zea Mays (ZEAMX), Abutilon theophrasti (ABUTH), Amaranthus retroflexus (AMARE) and Setaria faberi (SETFA). After 8 days cultivation (post-emergence) under controlled conditions in a glasshouse (at 24/16° C., day/night; 14 hours light; 65% humidity), the plants were sprayed with an aqueous spray solution derived from the formulation of the technical active ingredient in acetone/water (50:50) solution containing 0.5% Tween 20 (polyoxyethelyene sorbitan monolaurate, CAS RN 9005-64-5). The test plants were then grown in a glasshouse under controlled conditions (at 24/16° C., day/night; 14 hours light; 65% humidity) and watered twice daily. After 13 days, the test was evaluated (5=total damage to plant; 0=no damage to plant). Tables B2a and B2b Control of Weed Species by Compound of Formula (I) after Post-Emergence Application
With `CNc1ccc(-c2cncc(F)c2)nc1C(F)(F)F` [Compound A5], the ZEAMX damage score amounted to 5.
Still for that read-out and setting: the same measure for `CC(Nc1ccc(-c2cncc(F)c2)nc1C(F)(F)F)c1ccccc1` (stereo not drawn) [Compound A17]: 4.
As to `CNc1ccc(-c2cncc(OC)c2)nc1C(F)(F)F` [Compound A10], the ZEAMX damage score is recorded as 2.
Same read-out and setting: the same measure for `CNc1ccc(-c2cncnc2)nc1C` [Compound A15]: 1; for `CNc1ccc(-c2cccnc2)nc1C(F)(F)F` [Compound A11]: 2; for `Fc1cncc(-c2ccc(NCc3ccccc3)c(C(F)(F)F)n2)c1` [Compound A21]: 5.

The subject of another assay is Abutilon theophrasti (ABUTH). Description: Post-emergence herbicidal activity (B2). It counts as in vivo. The following applies: Test B2b, 1000 g/ha, evaluated after 13 days, 5=total damage to plant, 0=no damage to plant. The procedure:
as §2
`CNc1ccc(-c2cncc(F)c2)nc1C(F)(F)F` [Compound A5] came in with an ABUTH damage score of 1.
Molecule `CC(Nc1ccc(-c2cncc(F)c2)nc1C(F)(F)F)c1ccccc1` (stereo not drawn) [Compound A17] returned an ABUTH damage score of 0.
On the same count and under the same terms, the value for `CNc1ccc(-c2cncc(OC)c2)nc1C(F)(F)F` [Compound A10] was 0; that for `CNc1ccc(-c2cncnc2)nc1C` [Compound A15] was 0; that for `CNc1ccc(-c2cccnc2)nc1C(F)(F)F` [Compound A11] was 1.
Same read-out and setting: the same measure for `Fc1cncc(-c2ccc(NCc3ccccc3)c(C(F)(F)F)n2)c1` [Compound A21]: 0.

In another assay the test system is Lolium perenne (LOLPE). Description: Post-emergence herbicidal activity (B2). It counts as in vivo. Conditions: Test B2b, 1000 g/ha, evaluated after 13 days, 5=total damage to plant, 0=no damage to plant. The procedure: as §2
Molecule `CNc1ccc(-c2cncc(F)c2)nc1C(F)(F)F` [Compound A5] gave an LOLPE damage score of 4.
Same read-out and setting: the value for `CC(Nc1ccc(-c2cncc(F)c2)nc1C(F)(F)F)c1ccccc1` (stereo not drawn) [Compound A17] was 1; that for `CNc1ccc(-c2cncc(OC)c2)nc1C(F)(F)F` [Compound A10] was 1.
`CNc1ccc(-c2cncnc2)nc1C` [Compound A15] displayed an LOLPE damage score of 1.
The molecule `CNc1ccc(-c2cccnc2)nc1C(F)(F)F` [Compound A11] returned an LOLPE damage score of 4.
`Fc1cncc(-c2ccc(NCc3ccccc3)c(C(F)(F)F)n2)c1` [Compound A21] returned an LOLPE damage score of 1.

The subject of another assay is Setaria faberi (SETFA). Description: Post-emergence herbicidal activity (B2). It counts as in vivo. Conditions: Test B2b, 1000 g/ha, evaluated after 13 days, 5=total damage to plant, 0=no damage to plant. The procedure: as §2
With `CNc1ccc(-c2cncc(F)c2)nc1C(F)(F)F` [Compound A5], the SETFA damage score is given as 5.
Consider `CC(Nc1ccc(-c2cncc(F)c2)nc1C(F)(F)F)c1ccccc1` (stereo not drawn) [Compound A17], for which the SETFA damage score was determined as 4.
The same measure, in the same setting: the same measure for `CNc1ccc(-c2cncc(OC)c2)nc1C(F)(F)F` [Compound A10]: 3.
Still for that read-out and setting: the value for `CNc1ccc(-c2cncnc2)nc1C` [Compound A15] was 2; that for `CNc1ccc(-c2cccnc2)nc1C(F)(F)F` [Compound A11] was 5.
Same read-out and setting: the value for `Fc1cncc(-c2ccc(NCc3ccccc3)c(C(F)(F)F)n2)c1` [Compound A21] was 5.

In another assay the test system is Amaranthus retroflexus (AMARE). Description: Post-emergence herbicidal activity (B2). It counts as in vivo. The following applies: Test B2b, 1000 g/ha, evaluated after 13 days, 5=total damage to plant, 0=no damage to plant. The procedure:
as §2
Consider `CNc1ccc(-c2cncc(F)c2)nc1C(F)(F)F` [Compound A5], for which the AMARE damage score was found to be 1.
The same measure, in the same setting: the same measure for `CC(Nc1ccc(-c2cncc(F)c2)nc1C(F)(F)F)c1ccccc1` (stereo not drawn) [Compound A17]: 0; for `CNc1ccc(-c2cncc(OC)c2)nc1C(F)(F)F` [Compound A10]: 1.
Same read-out and setting: the same measure for `CNc1ccc(-c2cncnc2)nc1C` [Compound A15]: 1; for `CNc1ccc(-c2cccnc2)nc1C(F)(F)F` [Compound A11]: 1.
The same measure, in the same setting: the value for `Fc1cncc(-c2ccc(NCc3ccccc3)c(C(F)(F)F)n2)c1` [Compound A21] was 1.

The subject of the next assay is Echinochloa crus-galli (ECHCG). Description: Post-emergence herbicidal activity (B2). Conditions: Test B2b, 1000 g/ha, evaluated after 13 days, 5=total damage to plant, 0=no damage to plant. The format is in vivo. The procedure:
as §2
As to `CNc1ccc(-c2cncc(F)c2)nc1C(F)(F)F` [Compound A5], the ECHCG damage score was 4.
Molecule `CC(Nc1ccc(-c2cncc(F)c2)nc1C(F)(F)F)c1ccccc1` (stereo not drawn) [Compound A17] displayed an ECHCG damage score of 4.
On to `CNc1ccc(-c2cncc(OC)c2)nc1C(F)(F)F` [Compound A10], for which the ECHCG damage score amounted to 1.
On the same count and under the same terms, the value for `CNc1ccc(-c2cncnc2)nc1C` [Compound A15] was 2.
In turn, `CNc1ccc(-c2cccnc2)nc1C(F)(F)F` [Compound A11] returned an ECHCG damage score of 4.
The same measure, in the same setting: the value for `Fc1cncc(-c2ccc(NCc3ccccc3)c(C(F)(F)F)n2)c1` [Compound A21] was 1.
